These results are taken from publication PMC6539072, “Diclofenac-Derived Hybrids for Treatment of Actinic Keratosis and Squamous Cell Carcinoma” (Molecules, 2019).

For data set [1] the following is noted: no reference given; cited from earlier work.
For a further data set, the system named is A431 cells. Put plainly: Neutral Red cell viability assay on A431 squamous carcinoma cells. As to conditions: for IC50: neutral red, 0.1–100 μM, NR: not reached. Type of data set: cell-based, human. Here is the method:
(§1) The immortalized human keratinocyte (HaCaT) cells and human squamous carcinoma (A431) cells (Sigma-Aldrich, Milan, Italy) were cultured in RPMI 1640 (Euroclone, Milan, Italy) supplemented with 10% fetal bovine serum (FBS), 100 U/mL penicillin, and 100 μg/mL streptomycin (Euroclone) at 37 °C in a humidified atmosphere containing 5% CO2.
(§2) Both HaCaT (EGF-stimulated) and A431 cells were incubated for 72 h with the test compounds at concentrations in the range 0.1–100 μM.
(§3) Cell viability was measured using the Neutral Red (NR) Assay (N2889, Sigma-Aldrich, Darmstadt, Germany) as previously reported. HaCaT and A431 cell lines were seeded at a density of 5 × 10^4 cells/well in 10% FBS medium in a 96-well plate. After 24 h, test compounds, dissolved in DMSO, were diluted in sterile culture medium supplemented with EGF (HaCaT cells) or 1% FBS (A431 cells) and added into the well plate. […] Diclofenac, HT, T and hybrids 1–4 were tested. After 72 h from treatment, NR was added and cells incubated for 2 h. At the end of the incubation period, cells were washed with PBS and, then, incubated for 10 min with a NR solubilisation solution (1% acetic acid in 50% ethanol). The absorbance was measured at 540 nm using the Infinite M200 NanoQuant instrument (Tecan, Salzburg, Austria). Optical density values from vehicle-treated cells were considered as 100% cell viability.

A short description of data set [2]: In vitro cutaneous permeation through pig ear skin (Gummer-type diffusion cells). The conditions noted are these: measured as hybrid 1 in receiving phase; 24 h. Type of data set: in vitro ADME. The source says:
Porcine ears skin, obtained from freshly sacrificed animals in a local slaughterhouse, was used as model. After cleaning with depurated water, full-thickness skin was removed with a scalpel from the cartilage of the outer region. The excised pig ear skin was carefully deprived of the adhering fat and subcutaneous tissue. Prior to the experiments, the pig hairs were abscised and the skin was gently washed. The skin with a thickness about 1.46 ± 0.06 mm was placed in the Gummer-type diffusion cells with the stratum corneum facing the donor compartment and an available diffusion area of […]. […]
The concentration of diclofenac and hybrid 1 in receiving fluids and in the skin samples was selectively determined by HPLC. […]
Linear regression analysis of pseudo steady state diffusion plots allowed calculation of the following parameters: steady-state flux (J, nmols/cm^2·h), given by Q/At, where Q is the amount of permeant diffusing across area A in time t; lag time (h), indicating the time taken by the drug to saturate the membrane and reach the receiving phase, calculated from the X-axis intercept values of the regression lines and the amount of drug permeated at the end of the experiment (Q24h, nmols).

In data set [3] the test system is EGF-stimulated HaCaT cells. In words: Neutral Red cell viability assay on EGF-stimulated HaCaT cells (actinic keratosis model). As to conditions: for potency relative to diclofenac (native drugs): ratio of IC50 values on EGF-stimulated HaCaT. Type of data set: cell-based, human. How it is done:
as §1
HaCaT cells under the proliferative stimulus of EGF were used as model of actinic keratosis (AK), a precancerous disease that can progress in cutaneous squamous cell carcinoma (cSCC), according to the critical role played by the EGFR/Fyn/Src/Erk pathway for promoting cSCC formation. Cells were stimulated with EGF at the concentration 5 ng/mL for whole time of treatment with test compounds (see below).
as §2, §3

The mark [4] stands for this setting: Homo sapiens, A-431, A431, 72 h.
Where [5] appears, read: Homo sapiens, EGF-stimulated HaCaT (5 ng/mL EGF), 72 h, neutral red, 0.1–100 μM, NR: not reached.
The mark [6] stands for this setting: EGF-stimulated HaCaT (5 ng/mL EGF), 72 h, neutral red, 0.1–100 μM, NR: not reached.

“Also recorded” adds a separate entry of the source.

Broadly, the IC50 is the concentration that inhibits the measured activity by half. Lower therefore signals greater potency. Broadly, the melting point is the temperature of the solid-liquid transition.

With `O=C(O)Cc1ccccc1Nc1c(Cl)cccc1Cl` [diclofenac sodium], the “partition coefficient n-octanol/water, log POW” value in data set [1] was 4.98.

Turning to `O=C(Cc1ccccc1Nc1c(Cl)cccc1Cl)OCCc1ccc(O)c(O)c1` [hybrid 1, 3,4-Dihydroxyphenethyl 2-(2-((2,6-dichlorophenyl)amino)phenyl)acetate], the melting point is 123 to 125 °C. The “IC50 in A431 relative to IC50 in EGF-stimulated HaCaT” value with A431 cells (A431 vs EGF-stimulated HaCaT) is listed as “about 4 fold”. This compound also yielded an IC50 in the data set with A431 cells (setting [4]) of 13.5 ± 2.49 µM. Moreover, the Flux entry in data set [2] is listed as “did not permeate across the skin”. In data set [3] (setting [5]), this compound displayed an IC50 of 3.71 ± 1.08 µM. In data set [3], the “potency relative to diclofenac (native drugs)” value was “about 20 fold”.

On to `O=C(CCCOC(=O)Cc1ccccc1Nc1c(Cl)cccc1Cl)OCCc1ccc(O)cc1` [hybrid 4, 4-Hydroxyphenethyl 4-(2-(2-((2,6-dichlorophenyl)amino)phenyl)acetoxy)butanoate], for which the “effect on cell viability (in words)” value in the data set on A431 cells (A431, 72 h) is listed as “not able to induce modification in cell viability”; in data set [3] (EGF-stimulated HaCaT, 72 h) it was “antiproliferative effect lower than that of diclofenac; also recorded: not able to induce modification in cell viability”. In addition, the IC50 (in the data set on A431 cells (setting [4]); in data set [3] (setting [5])) was > 100 µM in each case.

With `O=C(CCCOC(=O)Cc1ccccc1Nc1c(Cl)cccc1Cl)OCCc1ccc(O)c(O)c1` [hybrid 3, 3,4-Dihydroxyphenethyl 4-(2-(2-((2,6-dichlorophenyl)amino)phenyl)acetoxy)butanoate], the figures for the IC50 (in the data set on A431 cells (setting [4]); in data set [3] (setting [5])) were 30.7 ± 1.33 µM and 17.8 ± 1.09 µM, respectively.

On to `O=C(O)Cc1ccccc1Nc1c(Cl)cccc1Cl` [diclofenac], for which the values for the IC50 (in the data set with A431 cells (setting [4]); in data set [3] (setting [5])) were 32 ± 1.05 µM and 67.1 ± 1.94 µM, respectively.

As to “3-Hydroxyphenethyl 2-(2-((2,6-dichlorophenyl)amino)phenyl)acetate [hybrid 2]”, the IC50 is 27.5 ± 1.24 µM in the data set on A431 cells (A431, 72 h) and 16.1 ± 1.15 µM in data set [3] (setting [6]). The “potency relative to diclofenac (native drugs)” value in data set [3] came to 4 fold.

`OCCc1ccc(O)cc1` [T, tyrosol, reference compound]: the IC50 (in the data set with A431 cells (setting [4]); in data set [3] (setting [5])) was > 100 µM in each case. Besides, the “IC50 ± SEM” value in data set [3] (setting [6]) is “not reached”.

In the case of `OCCc1ccc(O)c(O)c1` [HT, hydroxytyrosol, reference compound], the IC50 with A431 cells (setting [4]) is > 100 µM; in data set [3] (setting [5]), 72.3 ± 3.58 µM.
